{"source": "patent US8815912B2", "about": "“Wound and mucosa antiseptic based on bispyridiniumalkanes” (L'Air Liquide Société Anonyme pour l'Etude et …, priority 2009, dated 2014)", "experiment": "Stability of solutions rendered isotonic (290 mOsmol/kg)", "format": "physicochemical", "settings": "0.10% octenidine, dihydrochloride", "description": "To investigate the stability, aqueous solutions containing 0.1% by weight of octenidine were in each case rendered isotonic (290 mOsmol/kg).", "data": [{"smiles": "CCCCCCCCN=c1ccn(CCCCCCCCCCn2ccc(=NCCCCCCCC)cc2)cc1.Cl.Cl", "note": "[Octenidine, Octenidine dihydrochloride]", "values": [{"measurement": "Stability", "setting": "isotonicity adjusted with 0.85% sodium chloride, listed as octenidine", "result": "not stable"}, {"measurement": "Stability", "setting": "isotonicity adjusted with 2.4% glycerol (99.8% strength)", "result": "Stable between +4 °C and +40 °C"}, {"measurement": "Stability", "setting": "isotonicity adjusted with 2.4% glycerol (99.8% strength), listed as octenidine", "result": "stable"}, {"measurement": "Stability", "setting": "isotonicity adjusted with 99.9% Ringer's solution, listed as octenidine", "result": "not stable"}]}]}
